Read-outs that look alike come from different tables or passages of the source.
Experiments:
HCT-116 = test: NCI 60 antitumor screening (single dose / five doses); type: cell-based; conditions: Homo sapiens
SR = test: as above; type: cell-based; conditions: Homo sapiens, read-out: Growth inhibition percentage (GI %)
MOLT-4 = test: as above; type: cell-based; conditions: Homo sapiens
TK-10 = test: NCI 60 antitumor screening (single dose); type: cell-based; conditions: Homo sapiens; TK-10 (renal cancer), single dose 10 μM; read-out: Growth inhibition percentage (GI %)
Summary of the method: (§1)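 GI% derived as 100 − G% from triplicate growth measurements in the NCI 60 human tumour panel, compound 10 μM, single dose, per NCI protocol.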

M14 = test: NCI 60 antitumor screening (single dose); type: cell-based; conditions: Homo sapiens; M14 (melanoma), single dose 10 μM; read-out: Growth inhibition percentage (GI %)
Summary of the method: as §1

HS 578T = test: NCI 60 antitumor screening (single dose); type: cell-based; conditions: Homo sapiens; HS 578T (breast cancer), single dose 10 μM; read-out: Growth inhibition percentage (GI %)
Summary of the method: as §1

MALME-3M = test: NCI 60 antitumor screening (single dose / five doses); type: cell-based; conditions: Homo sapiens, read-out: Growth inhibition percentage (GI %)
T-47D = test: as above; type: cell-based; conditions: Homo sapiens, T47D, read-out: Growth inhibition percentage (GI %)
SF-539 = test: as above; type: cell-based; conditions: Homo sapiens
K-562 = test: as above; type: cell-based; conditions: Homo sapiens
NCI/ADR-RES = test: as above; type: cell-based; conditions: Homo sapiens, read-out: Growth inhibition percentage (GI %)
HOP-92 = test: as above; type: cell-based; conditions: Homo sapiens
BT-549 = test: as above; type: cell-based; conditions: Homo sapiens
RPMI-8226 = test: as above; type: cell-based; conditions: Homo sapiens
HL-60(TB) = test: as above; type: cell-based; conditions: Homo sapiens
HCT-15 = test: as above; type: cell-based; conditions: Homo sapiens
[1] = test system: 60 human subpanel cancer cell lines; test: NCI 60 antitumor screening, mean over the panel (single dose); type: cell-based; conditions: mean over 60 cancer cell lines, single dose 10 μM
Summary of the method: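 Test compound added at 10 μM to each of 60 human cancer lines from nine tumour types; growth measured per NCI protocol in triplicate; percent growth converted to inhibition (100 − G%).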

ACHN = test: NCI 60 antitumor screening (single dose / five doses); type: cell-based; conditions: Homo sapiens, read-out: Growth inhibition percentage (GI %)
786-0 = test: as above; type: cell-based; conditions: Homo sapiens
MDA-MB-435 = test: as above; type: cell-based; conditions: Homo sapiens
CCRF-CEM = test: as above; type: cell-based; conditions: Homo sapiens, read-out: Growth inhibition percentage (GI %)
LOX IMVI = test: as above; type: cell-based; conditions: Homo sapiens, read-out: Growth inhibition percentage (GI %)
UACC-257 = test: as above; type: cell-based; conditions: Homo sapiens
MDA-MB-231/ATCC = test: as above; type: cell-based; conditions: Homo sapiens
SNB-75 = test: as above; type: cell-based; conditions: Homo sapiens
HT29 = test: as above; type: cell-based, human; conditions: Homo sapiens
UO-31 = test: as above; type: cell-based; conditions: Homo sapiens
SN 12C = test: as above; type: cell-based; conditions: Homo sapiens, SN12C, read-out: Growth inhibition percentage (GI %)
UACC-62 = test: as above; type: cell-based; conditions: Homo sapiens
[2] = HCT-116 (colon cancer), single dose 10 μM, read-out: Growth inhibition percentage (GI %)
[3] = SR (leukaemia), single dose 10 μM
[4] = MOLT-4 (leukaemia), single dose 10 μM, read-out: Growth inhibition percentage (GI %)
[5] = MALME-3M (melanoma), single dose 10 μM
[6] = T-47D (breast cancer), single dose 10 μM
[7] = SF-539 (CNS cancer), single dose 10 μM, read-out: Growth inhibition percentage (GI %)
[8] = K562, K-562 (leukaemia), single dose 10 μM, read-out: Growth inhibition percentage (GI %)
[9] = NCI/ADR-RES (ovarian cancer), single dose 10 μM
[10] = HOP-92 (non-small cell lung cancer), single dose 10 μM, read-out: Growth inhibition percentage (GI %)
[11] = BT-549 (breast cancer), single dose 10 μM, read-out: Growth inhibition percentage (GI %)
[12] = RPMI-8226 (leukaemia), single dose 10 μM, read-out: Growth inhibition percentage (GI %)
[13] = HL-60(TB) (leukaemia), single dose 10 μM, read-out: Growth inhibition percentage (GI %)
[14] = HCT-15 (colon cancer), single dose 10 μM, read-out: Growth inhibition percentage (GI %)
[15] = ACHN (renal cancer), single dose 10 μM
[16] = 786-0, 786-0 (renal cancer), single dose 10 μM, read-out: Growth inhibition percentage (GI %)
[17] = MDA-MB-435 (melanoma), single dose 10 μM, read-out: Growth inhibition percentage (GI %)
[18] = CCRF-CEM (leukaemia), single dose 10 μM
[19] = LOX IMVI (melanoma), single dose 10 μM
[20] = UACC-257 (melanoma), single dose 10 μM, read-out: Growth inhibition percentage (GI %)
[21] = MDA-MB-231/ATCC (breast cancer), single dose 10 μM, read-out: Growth inhibition percentage (GI %)
[22] = SNB-75 (CNS cancer), single dose 10 μM, read-out: Growth inhibition percentage (GI %)
[23] = HT-29, HT29 (colon cancer), single dose 10 μM, read-out: Growth inhibition percentage (GI %)
[24] = UO-31 (renal cancer), single dose 10 μM, read-out: Growth inhibition percentage (GI %)
[25] = SN 12C (renal cancer), single dose 10 μM
[26] = UACC-62 (melanoma), single dose 10 μM, read-out: Growth inhibition percentage (GI %)

Clc1cccc(/C=N/Nc2nc(N/N=C/c3cccc(Cl)c3Cl)nc(N3CCCCC3)n2)c1Cl [compound 7h, 2,4-Bis[(E)-2-[(2,3-Dichlorophenyl)methylidene]hydrazin-1-yl]-6-(piperidin-1-yl)-1,3,5-triazine]
inhibition at 10 µM (HCT-116; [2]): 51.2% | inhibition at 10 µM (SR; [3]): 66.6% | inhibition at 10 µM (MOLT-4; [4]): 15.7% | inhibition at 10 µM (TK-10): 8.78% | inhibition at 10 µM (M14): 31.2% | inhibition at 10 µM (HS 578T): 15% | inhibition at 10 µM (MALME-3M; [5]): 7.49% | inhibition at 10 µM (T-47D; [6]): 51.7% | inhibition at 10 µM (SF-539; [7]): 15.7% | inhibition at 10 µM (K-562; [8]): 21.9% | inhibition at 10 µM (NCI/ADR-RES; [9]): 32.6% | inhibition at 10 µM (HOP-92; [10]): 13.8% | inhibition at 10 µM (BT-549; [11]): 2.7% | inhibition at 10 µM (RPMI-8226; [12]): 6.61% | inhibition at 10 µM (HL-60(TB); [13]): -6.32% | inhibition at 10 µM (HCT-15; [14]): 34.5% | Mean GI % [1]: 18.81% | inhibition at 10 µM (ACHN; [15]): 16.3% | inhibition at 10 µM (786-0; [16]): -1.71% | inhibition at 10 µM (MDA-MB-435; [17]): -13.8% | inhibition at 10 µM (CCRF-CEM; [18]): 28.7% | inhibition at 10 µM (LOX IMVI; [19]): 31.7% | inhibition at 10 µM (UACC-257; [20]): 10.2% | inhibition at 10 µM (MDA-MB-231/ATCC; [21]): 15.8% | inhibition at 10 µM (SNB-75; [22]): -4.05% | inhibition at 10 µM (HT29; [23]): 15.7% | inhibition at 10 µM (UO-31; [24]): 6.76% | inhibition at 10 µM (SN 12C; [25]): 19.3% | inhibition at 10 µM (UACC-62; [26]): 31.7%

O=[N+]([O-])c1cc(/C=N/Nc2nc(N/N=C/c3ccc(Cl)c([N+](=O)[O-])c3)nc(N3CCCCC3)n2)ccc1Cl [compound 7i, 2,4-Bis[(E)-2-[(4-Chloro-3-nitrophenyl)methylidene]hydrazin-1-yl]-6-(piperidin-1-yl)-1,3,5-triazine]
inhibition at 10 µM (HCT-116; HCT-116, read-out: Growth inhibition percentage (GI %)): 78% | inhibition at 10 µM (SR; SR): 36.8% | inhibition at 10 µM (MOLT-4; MOLT-4, read-out: Growth inhibition percentage (GI %)): 57.7% | inhibition at 10 µM (TK-10): 6.2% | inhibition at 10 µM (M14): 7.7% | inhibition at 10 µM (HS 578T): 46.2% | inhibition at 10 µM (MALME-3M; Malme-3M): -1.47% | inhibition at 10 µM (T-47D): 51.8% | inhibition at 10 µM (SF-539; SF-539, read-out: Growth inhibition percentage (GI %)): 63.7% | inhibition at 10 µM (K-562; K562, read-out: Growth inhibition percentage (GI %)): 68.3% | inhibition at 10 µM (NCI/ADR-RES; NCI/ADR-RES): 69.8% | inhibition at 10 µM (HOP-92; HOP-92, read-out: Growth inhibition percentage (GI %)): -23.1% | inhibition at 10 µM (BT-549; BT-549, read-out: Growth inhibition percentage (GI %)): 2.15% | inhibition at 10 µM (RPMI-8226; RPMI-8226, read-out: Growth inhibition percentage (GI %)): 81.7% | inhibition at 10 µM (HL-60(TB); HL-60, read-out: Growth inhibition percentage (GI %)): 58.1% | inhibition at 10 µM (HCT-15; HCT-15, read-out: Growth inhibition percentage (GI %)): 50.3% | Mean GI % [1]: 37.38% | inhibition at 10 µM (ACHN; ACHN): 64.8% | inhibition at 10 µM (786-0; 786-0, read-out: Growth inhibition percentage (GI %)): -8.84% | inhibition at 10 µM (MDA-MB-435; MDA-MB-435, read-out: Growth inhibition percentage (GI %)): 19.3% | inhibition at 10 µM (CCRF-CEM; CCRF-CEM): 38.7% | inhibition at 10 µM (LOX IMVI; LOX IMVI): 34% | inhibition at 10 µM (UACC-257; UACC-257, read-out: Growth inhibition percentage (GI %)): 56.9% | inhibition at 10 µM (MDA-MB-231/ATCC; MDA-MB-231, read-out: Growth inhibition percentage (GI %)): 51.7% | inhibition at 10 µM (SNB-75; SNB-75, read-out: Growth inhibition percentage (GI %)): -36.1% | inhibition at 10 µM (HT29; HT-29, read-out: Growth inhibition percentage (GI %)): 92.6% | inhibition at 10 µM (UO-31; UO-31, read-out: Growth inhibition percentage (GI %)): 52.5% | inhibition at 10 µM (SN 12C): 27.7% | inhibition at 10 µM (UACC-62; UACC-62, read-out: Growth inhibition percentage (GI %)): 34%

Oc1ccc(/C=N/Nc2nc(N/N=C/c3ccc(O)c(O)c3)nc(N3CCCCC3)n2)cc1O [compound 7j, 4-[(1e)-(2-{4-[(E)-2-[(3,4-Dihydroxyphenyl)methylidene]hydrazin-1-yl]-6-(piperidin-1-yl)-1,3,5-triazin-2-yl}hydrazin-1-ylidene)methyl]benzene-1,2-diol]
inhibition at 10 µM (HCT-116; [2]): 23.7% | inhibition at 10 µM (SR; [3]): 25.9% | inhibition at 10 µM (MOLT-4; [4]): 6.3% | inhibition at 10 µM (TK-10): -3.52% | inhibition at 10 µM (M14): -3.18% | inhibition at 10 µM (HS 578T): -6.08% | inhibition at 10 µM (MALME-3M; [5]): 6.88% | inhibition at 10 µM (T-47D; [6]): 16.9% | inhibition at 10 µM (SF-539; [7]): 1.16% | inhibition at 10 µM (K-562; [8]): 6.41% | inhibition at 10 µM (NCI/ADR-RES; [9]): -3.16% | inhibition at 10 µM (HOP-92; [10]): -9.47% | inhibition at 10 µM (BT-549; [11]): 1.47% | inhibition at 10 µM (RPMI-8226; [12]): -7.6% | inhibition at 10 µM (HL-60(TB); [13]): -1.96% | inhibition at 10 µM (HCT-15; [14]): 16.1% | Mean GI % [1]: 1.89% | inhibition at 10 µM (ACHN; [15]): 6.6% | inhibition at 10 µM (786-0; [16]): -1.22% | inhibition at 10 µM (MDA-MB-435; [17]): -1.68% | inhibition at 10 µM (CCRF-CEM; [18]): 9.46% | inhibition at 10 µM (LOX IMVI; [19]): 6.65% | inhibition at 10 µM (UACC-257; [20]): -8.89% | inhibition at 10 µM (MDA-MB-231/ATCC; [21]): 12.8% | inhibition at 10 µM (SNB-75; [22]): -4% | inhibition at 10 µM (HT29; [23]): -13.4% | inhibition at 10 µM (UO-31; [24]): 15.3% | inhibition at 10 µM (SN 12C; [25]): 4.32% | inhibition at 10 µM (UACC-62; [26]): 3.56%

From publication PMC9848300, “Discovery of novel enasidenib analogues targeting inhibition of mutant isocitrate dehydrogenase 2 as antileukaemic agents” (Journal of Enzyme Inhibition and Medicinal Chemistry, 2023)
